# Data reported in US20080311048A1, “Imaging Agent” (ISIS INNOVATION LTD., priority 2005, published 2008).
# Tested on: left hemisphere of rat brains injected with Interleukin-1β (selectin expression)
# Assay: MRI scans of rat brains after interleukin-1β injection into the left hemisphere
# Settings: in vivo
# Method: The magnetic particles of the present invention can be used in a number of different methods. In particular, sugars conjugated to ultra small super paramagnetic iron oxide provide more sensitive detection of cerebroendothelial cell activation than know contrast agents such as Gd-DTPA-B(sLEex)A. In particular conjugated magnetic particles in accordance with the present invention were used in MRI scans. Interleukin-1β was injected into the left hemisphere of rat brains. Interleukin beta was used to induce an inflammatory response in the left hemispheres. All samples were subjected to MRI scans. Controls were carried out using Gd alone, or superparamagnetic particles alone. Two different conjugates, one of which having a disaccharide and one of which having Sialyl Lewis X, both in accordance with the present invention were tested. […] The control with Gd (shown in FIG. 2) confirmed that there was no breakdown of the blood brain barrier. […] Thus, the conjugates of the present invention allowed imaging of the areas of the brain that had been injected with interleukin-1β, and which would be expected to show greater levels of selectin expression.
substance,measurement,value
Sialyl Lewis X,MRI scan: asymmetry between left and right cranial hemispheres,"asymmetry, being darker in the left hemisphere than the right"
